Data: US8883415B2, “Aza-benzazolium containing cyanine dyes” (Life Technologies Corporation, priority 1999, dated 2014)
“Also recorded” adds a separate entry of the source.

Columns and labels:
DNA = test: Excitation and emission wavelengths when associated with DNA; assay type: physicochemical
double-stranded DNA [1] = test: Detecting double-stranded DNA in the presence of single-stranded DNA; assay type: binding; conditions: nucleic acids 2 micrograms/mL; dye 1 micromolar; excitation 540 nm, emission 570 nm
Procedure: Samples containing nucleic acids at a concentration of 2 micrograms/mL are combined with Compound 16, Compound 22, or Compound 24 at a final dye concentration of 1 micromolar in 10 mM Tris-HCl, 1 mM EDTA, pH 7.5, and mixed gently. The resulting mixture is allowed to incubate for 5-60 minutes at room temperature, protected from light, and sample fluorescence is measured using a fluorescence microplate reader, with excitation at 540 nm and emission at 570 nm. […] If, however, the dye concentration is reduced relative to the concentration of single-stranded nucleic acids, the fluorescence upon binding those nucleic acids increases relative to that of the double-stranded DNA-dye complex. Thus the assay is always performed in sufficient dye excess.

double-stranded DNA [2] = test: Detecting double-stranded DNA in solution (fluorescence microplate reader); assay type: binding
Procedure: Samples containing 0.1 ng/mL to 1 microgram/mL double-stranded DNA are prepared in 10 mM Tris-HCl, 1 mM EDTA, pH 7.5. The selected dye of the invention is dissolved in DMSO at a concentration of 1-10 mM and then diluted into the same buffer at a concentration sufficient to achieve final optical densities of 0.1 and 0.01 at 500 nm, 530 nm, 540 nm or 560 nm. Equal volumes (100 microliters each) of DNA sample solution and dye solution at each concentration are combined and mixed gently at room temperature in a microplate well.
Samples are allowed to equilibrate for 5-60 minutes, protected from light, and the fluorescence of the sample is measured using a fluorescence microplate reader. DNA concentration is determined by comparison of the sample fluorescence with a standard curve obtained with that dye for each dye concentration. The sensitivity limit of several dyes in this assay is shown (Table 5).

[3] = tested on: double-stranded bacteriophage λ cl857 DNA that is digested with HindIII restriction endonuclease; test: Detecting nucleic acids in gels; assay type: binding; conditions: POLAROID 667 B&W film; FOTODYNE 254 nm epi.; 1 micromolar dye
[4] = tested on: double-stranded bacteriophage λ cl857 DNA that is digested with HindIII restriction endonuclease; test: Detecting nucleic acids in gels; assay type: binding; conditions: 1 micromolar dye
Procedure: DNA samples are loaded onto agarose or polyacrylamide gels and electrophoresed using standard conditions. Selected dyes of the invention are dissolved in DMSO at a concentration of 1-10 micromolar and diluted into 0.5×TBE buffer to a final concentration of 1 micromolar dye. Gels are incubated for 20-90 minutes in this staining solution, with gentle agitation, at room temperature, protected from light. Nucleic acids are visualized by transillumination at 300 nm, followed by direct visual detection or photography using Polaroid black-and-white print film. Nucleic acids are alternatively visualized by scanning using a FMBIO II laser scanner with a 532 nm frequency-doubled YAG laser source or a charge-coupled device camera system coupled with an ultraviolet (300 nm) light source, or a visible light transilluminator.

bovine serum albumin = bovine serum albumin (Bos taurus, UniProt P02769); test: Detecting proteins in solution; assay type: binding; conditions: 2 micromolar dye, 0.05% SDS; either 10 minutes at 90° C. or 5-60 minutes at room temperature
Procedure: Compound 51 and Compound 44 are dissolved in DMSO at 1-10 mM and then diluted into 10 mM Tris-HCl, 1 mM EDTA, pH 7.5, containing 0.05% sodium dodecyl sulfate, to a final concentration of 2 micromolar. This dye solution is combined with samples containing bovine serum albumin at 100 ng/mL to 10 micrograms/mL. Samples are optionally incubated for 10 minutes at 90° C. and then cooled to room temperature, or are incubated for 5-60 minutes at room temperature. Fluorescence is measured using a fluorescence microplate reader with excitation at 540 nm and emission at 590 nm for Compound 44 and with excitation at 600 nm and emission at 670 nm for Compound 51. The fluorescence signal obtained from Compound 44 or 51 in buffer alone (control) is subtracted from the fluorescence recorded for the protein-containing samples in order to determine the intensity of the signal that is due to the presence of protein. Protein concentrations are then determined by comparison of the signal intensity thus obtained with the signals obtained using a dilution series of known concentration prepared using either the same protein or a protein standard, such as bovine serum albumin. The sensitivity limit for either dye under either condition is about 100 ng/mL bovine serum albumin (FIGS. 3 and 4).

[5] = tested on: Jurkat human T-cell leukemia cells; test: Detection of apoptosis by flow cytometry; assay type: cell-based; conditions: 30 minutes on ice, 488 nm excitation
Procedure: A 1 mM solution of Compound 27 in DMSO is prepared. Jurkat human T-cell leukemia cells are treated with 10 μM camptothecin to induce apoptosis. A sample of the cells (1×10^8 cells/mL) is incubated with enough of the Compound 27 stock solution to give a final dye concentration of 0.1 μM, and sufficient propidium iodide to give a final concentration of 1.5 μM. After incubating for 30 minutes on ice, the cell samples are analyzed on a FacsVantage flow cytometer using 488-argon laser excitation, with emission at 530/30 and 675/20. Apoptotic cells are compared to control cells that were incubated with the same final concentration of DMSO used in the staining solution.

proteins = test: Detection of proteins in SDS-polyacrylamide gels; assay type: binding; conditions: 1-3 μM dye in 7.5% acetic acid
Procedure: The pure protein or mixture of proteins of interest is prepared in Loading Buffer (50 mM Tris-HCl, pH 6.8, 2% SDS, 10% glycerol, and 0.015% bromophenol blue). Dithiothreitol is added to each sample, to a final concentration of 0.1 M. The samples are heated for 4-5 minutes at 90-95 °C and loaded onto a 15% Tris-glycine polyacrylamide mini- or full-sized gel containing 0.05%-0.1% SDS, with a 4% stacking gel. The gel is electrophoresed under standard conditions, in a standard Tris-glycine buffer containing 0.05%-0.1% SDS. The resulting gel is transferred to a small staining dish containing a 1-3 μM solution of Compound 25 in 7.5% acetic acid (in water). The staining solution is then covered with foil to protect it from room light and gently agitated for 45 minutes-1 hour. […] The gel is then removed from the staining dish, rinsed briefly in 7.5% acetic acid and transferred directly to a UV-transilluminator. The gel, with the stained protein bands is photographed using 300 nm transillumination and black and white POLAROID 667 print film with a Wratten 9 gelatin filter. […] Proteins appear as white bands on a grey to black background in the POLAROID photograph.

[6] = tested on: 18-base oligodeoxynucleotide sequencing primer; test: Detecting oligonucleotides in solution; assay type: binding; conditions: Excitation 540 nm/Emission 570 nm
Procedure: Selected dyes of the invention are dissolved in DMSO at 1-10 micromolar concentration, then diluted into 10 mM Tris-HCl, 1 mM EDTA, pH 7.5 to a final optical density of 0.1 or 0.01 at 530 nm or 540 nm. The resulting dye solutions are combined with an equal volume of an 18-base oligodeoxynucleotide sequencing primer solution at concentrations of 0.1 ng/mL to 1 microgram/mL in the same buffer. The resulting mixture is mixed gently and incubated for 5-60 minutes at room temperature, protected from light, and the sample fluorescence is measured in a fluorescence microplate reader.

[7] = tested on: Escherichia coli ribosomal RNA; test: Detecting RNA in solution; assay type: binding; conditions: Excitation 540 nm/Emission 570 nm
Procedure: Selected dyes of the invention are dissolved in DMSO at 1-10 micromolar concentration, then diluted into 10 mM Tris-HCl, 1 mM EDTA, pH 7.5 to a final optical density of 0.1 or 0.01 at 530 nm or 540 nm. These dye solutions are combined with an equal volume of Escherichia coli ribosomal RNA at concentrations ranging from 0.25 ng/mL to 1 microgram/mL in microplate wells. The resulting mixtures are mixed gently and incubated for 5-60 minutes at room temperature, protected from light, and the sample fluorescence is measured.

[8] = Excitation 540 nm/Emission 570 nm
[9] = BOEHRINGER MANNHEIM LUMIIMAGER CCD, 300 nm trans., 520 nm em.
[10] = BOEHRINGER MANNHEIM LUMIIMAGER CCD, 300 nm trans., 545 nm em
[11] = HITACHI FMBIO II laser scanner, 532 nm freq.-doubled YAG laser
[12] = POLAROID 667 B&W film, DARK READER visible light box
[13] = POLAROID 667 B&W film, FOTODYNE 300 nm trans.
[14] = Excitation 530 nm/Emission 560 nm

Chain of bovine serum albumin (P02769 25-607): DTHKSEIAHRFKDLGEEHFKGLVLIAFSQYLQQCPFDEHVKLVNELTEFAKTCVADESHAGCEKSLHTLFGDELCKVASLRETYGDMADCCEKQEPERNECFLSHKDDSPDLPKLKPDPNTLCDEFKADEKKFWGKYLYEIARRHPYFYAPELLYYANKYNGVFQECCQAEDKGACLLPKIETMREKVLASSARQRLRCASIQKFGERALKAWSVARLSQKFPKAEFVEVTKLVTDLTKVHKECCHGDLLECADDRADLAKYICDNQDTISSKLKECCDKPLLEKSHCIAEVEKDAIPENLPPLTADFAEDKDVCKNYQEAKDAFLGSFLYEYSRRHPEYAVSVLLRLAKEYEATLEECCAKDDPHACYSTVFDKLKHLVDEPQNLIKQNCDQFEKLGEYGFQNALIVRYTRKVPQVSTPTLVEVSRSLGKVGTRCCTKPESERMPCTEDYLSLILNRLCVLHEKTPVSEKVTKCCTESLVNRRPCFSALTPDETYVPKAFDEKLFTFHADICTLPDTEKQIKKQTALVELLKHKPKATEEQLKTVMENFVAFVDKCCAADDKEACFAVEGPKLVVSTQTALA

SMILES	Sensitivity Limit, High dye concentration (0.1 OD) (double-stranded DNA [2]; [8]) [ng/mL]	Sensitivity Limit, Low dye concentration (0.01 OD) (double-stranded DNA [2]; [8]) [ng/mL]	Sensitivity for detecting double-stranded DNA in agarose gels [3] [pg]	Sensitivity for detecting double-stranded DNA in agarose gels [4, 9] [pg]	Sensitivity for detecting double-stranded DNA in agarose gels [4, 10] [pg]	Sensitivity for detecting double-stranded DNA in agarose gels [4, 11] [pg]	Sensitivity for detecting double-stranded DNA in agarose gels [4, 12] [pg]	Sensitivity for detecting double-stranded DNA in agarose gels [4, 13] [pg]	other results
CN1C=C/C(=C\C(=C\c2sc3ccccc3[n+]2C)c2ccccc2)c2ccccc21 [Compound 60]									Emission wavelength (DNA): 659 nm; Excitation wavelength (DNA): 642 nm
CC[N+](C)(CC)Cc1ccc(C2=C/C(=C\c3nc4c(ccc[n+]4C)o3)c3ccccc3N2C)cc1 [Compound 24]	10	5.0	30	420	50	5	120	60	Preferential fluorescent staining of double-stranded DNA in the presence of single-stranded DNA and RNA (double-stranded DNA [1]): detected preferentially
CCCCC1=C/C(=C\c2nc3c(cc(Br)c[n+]3C)s2)c2ccccc2N1c1ccccc1.[I-] [Compound 44]									Sensitivity limit for bovine serum albumin (bovine serum albumin): about 100 ng/mL
C[n+]1cccc2oc(/C=C3\C=CN(CCC[N+](C)(C)C)c4ccccc43)nc21 [Compound 27]									Sensitivity Limit, High dye concentration (0.1 OD) (double-stranded DNA [2]; [14]): 20 ng/mL; Sensitivity Limit, Low dye concentration (0.01 OD) (double-stranded DNA [2]; [14]): 0.5 ng/mL; Differentiation of apoptotic and normal cells (plot of FL1 versus FL3) ([5]; 0.1 μM dye, 10 μM camptothecin-induced apoptosis): capable of differentiating between apoptotic and normal cells
CN1C(c2ccccc2)=C/C(=C\c2nc3c(ccc[n+]3C)o2)c2ccccc21.[I-] [Compound 16]	<10	1.0	30	210	50	25	240	120	Preferential fluorescent staining of double-stranded DNA in the presence of single-stranded DNA and RNA (double-stranded DNA [1]): preferential fluorescent staining of double-stranded DNA; also recorded: detected preferentially
CC[N+](C)(CC)CCC[n+]1c(-c2ccccc2)c2cc(N)ccc2c2ccc(N)cc21.[I-].[I-] [propidium iodide, reference compound]									Cells stained ([5]; 1.5 μM): Late stage apoptotic and necrotic cells are stained
CC[N+](C)(CC)Cc1ccc(C2=C/C(=C\c3nc4c(ccc[n+]4C)o3)c3cc(OC)ccc3N2C)cc1 [Compound 25]	<10	0.5	120	1700	100	25	240	120	Visual appearance of stained protein bands (proteins; 300 nm transillumination): brightly fluorescent orange bands; Visibility of protein bands in stained gel (proteins; after 10 minutes): protein bands are readily apparent; Sensitivity Limit, High dye concentration (0.1 OD) [6]: <10 ng/mL; Sensitivity Limit, Low dye concentration (0.01 OD) [6]: >10 ng/mL; Sensitivity Limit, High dye concentration (0.1 OD) [7]: 200 ng/mL; Sensitivity Limit, Low dye concentration (0.01 OD) [7]: 1.2 ng/mL
CN1C(c2ccccc2)=C/C(=C\C=C\c2nc3c(ccc[n+]3C)o2)c2ccccc21.[I-] [Compound 51]									Sensitivity limit for bovine serum albumin (bovine serum albumin): about 100 ng/mL
